Measured values taken from US20040142821A1, “Pesticide composition comprising malononitrile compounds” (priority 2001, published 2004).

tested on: Cullex pipiens pallens; test: whole plant or invertebrate; conditions: 24 h
Experimental: In 100 ml of ion-exchanged water, the test liquid had been prepared as described above, was added dropwise in an amount of 0.7 ml (the concentration of active ingredient was 3.5 ppm). Twenty final-instar larvae of Cullex pipiens pallens (common mosquito) were set free in the solution. After 1 days, their survival was examined to determine the mortality.

Compound | mortality at 3.5 µg/mL
C=CCCC(C#N)(C#N)Cc1ccc(C(F)(F)F)cc1 [Compound 52, 2-(3-butenyl)-2-(4-(trifluoromethyl)benzyl)malononitrile] | 100%
C=CCC(C#N)(C#N)C(C#N)c1ccc(OC(F)(F)F)cc1 (stereo not drawn) [Compound 55, 2-allyl-2-(4-(trifluoromethoxy)-α-cyanobenzyl)malononitrile] | 100%
C=CCC(C#N)(C#N)C(C#N)c1ccc(SC(F)(F)F)cc1 (stereo not drawn) [Compound 56, 2-allyl-2-(4-(trifluoromethylthio)-α-cyanobenzyl)malononitrile] | 100%
C=CCC(C#N)(C#N)Cc1ccc(C(F)(F)F)cc1C(F)(F)F [Compound 57, 2-allyl-2-(2,4-bis(trifluoromethyl)benzyl)malononitrile] | 100%
C=CCC(C#N)(C#N)Cc1ccc(C(F)(F)F)cc1Cl [Compound 58, 2-allyl-2-(2-chloro-4-(trifluoromethyl)benzyl)malononitrile] | 100%
CC#CCC(C#N)(C#N)Cc1ccc(OC(F)(F)F)cc1 [Compound 59, 2-(2-butynyl)-2-(4-(trifluoromethoxy)benzyl)malononitrile] | 100%
C=CCCC(C#N)(C#N)Cc1ccc(C(F)(F)F)cc1Cl [Compound 60, 2-(3-butenyl)-2-(2-chloro-4-(trifluoromethyl)benzyl)malononitrile] | 100%
C=CCC(C#N)(C#N)Cc1c(Cl)cc(C(F)(F)F)cc1Cl [Compound 64, 2-allyl-2-(2,6-dichloro-4-(trifluoromethyl)benzyl)malononitrile] | 100%
CC(C#N)(C#N)Cc1ccc(Cl)cc1 [Compound 68, 2-(4-chlorobenzyl)-2-methylmalononitrile] | 100%
C=CCC(C#N)(C#N)Cc1ccc(C(F)(F)F)c(F)c1 [Compound 69, 2-allyl-2-(3-fluoro-4-(trifluoromethyl)benzyl)malononitrile] | 100%
C=CCCCC(C#N)(C#N)C(C)c1ccc(Cl)cc1 (centres unmarked) [Compound 76, 2-(1-(4-chlorophenyl)ethyl)-2-(4-pentenyl)malononitrile] | 100%
C=CCCCC(C#N)(C#N)Cc1ccc(C(F)(F)F)cc1 [Compound 79, 2-(4-pentenyl)-2-(4-(trifluoromethyl)benzyl)malononitrile] | 100%
C=CCC(C#N)(C#N)C(OC)c1ccc(Cl)cc1 (stereo not drawn) [Compound 84, 2-allyl-2-(4-chloro-α-methoxybenzyl)malononitrile] | 100%
C=CCC(C#N)(C#N)Cc1cccc(OC(F)(F)F)c1 [Compound 89, 2-allyl-2-(3-(trifluoromethoxy)benzyl)malononitrile] | 100%
C=CCC(C#N)(C#N)Cc1ccc(C(C)C)cc1 [Compound 102, 2-allyl-2-(4-isopropylbenzyl)malononitrile] | 100%
CCCCC(C#N)(C#N)Cc1ccc(C(F)(F)F)cc1 [Compound 109, 2-butyl-2-(4-(trifluoromethyl)benzyl)malononitrile] | 100%
CC(C)CC(C#N)(C#N)Cc1ccc(C(F)(F)F)cc1 [Compound 110, 2-(2-methylpropyl)-2-(4-(trifluoromethyl)benzyl)malononitrile] | 100%

tested on: Diabrotica undecimpunctata; test: Pesticidal test against Diabrotica undecimpunctata, treated filter paper (Test Example 4); type: in vivo, Diabrotica undecimpunctata (southern-corn rootworm); conditions: 50 ppm test liquid (Formulation Example 1), 1 ml on filter paper; 30 to 50 eggs and one germinated corn seed; 25° C.
Experimental: One germinated seed of corn and 30 to 50 eggs of Diabrotica undecimpunctata (southern-corn rootworm) was placed on the filter paper in the polyethylene cup, which was then kept covered and left in a room at 25° C. On the 6th day after, the number of surviving larvae of Diabrotica undecimpunctata was examined.

Compound | number of surviving pests on the 6th day after
C=CCCC(C#N)(C#N)C(c1ccc(OC(F)(F)F)cc1)C(C)C (centres unmarked) [Compound 12] | 0
C=CCCCC(C#N)(C#N)C(C)c1ccc(Cl)cc1 (centres unmarked) [Compound 76, 2-(1-(4-chlorophenyl)ethyl)-2-(4-pentenyl)malononitrile] | 0

tested on: German cockroach; test: Pesticidal test against German cockroach, treated filter paper with sucrose bait (Test Example 6); type: in vivo; conditions: Blattella germanica, 144 h; 500 ppm test liquid (Formulation Example 5), 0.7 ml on filter paper; two male adults; after 6 days
Excerpt: Two male adults of German cockroach (Blattalla germanica) were set free in the polyethylene cup, which was then kept covered. After 6 days, their survival was examined to determine the mortality.

Compound | mortality at 500 ppm
C=CCCC(C#N)(C#N)Cc1ccc(C(F)(F)F)cc1 [Compound 52, 2-(3-butenyl)-2-(4-(trifluoromethyl)benzyl)malononitrile] | 100%
C=CCC(C#N)(C#N)C(C#N)c1ccc(OC(F)(F)F)cc1 (stereo not drawn) [Compound 55, 2-allyl-2-(4-(trifluoromethoxy)-α-cyanobenzyl)malononitrile] | 100%
C=CCC(C#N)(C#N)C(C#N)c1ccc(SC(F)(F)F)cc1 (stereo not drawn) [Compound 56, 2-allyl-2-(4-(trifluoromethylthio)-α-cyanobenzyl)malononitrile] | 100%
C=CCC(C#N)(C#N)Cc1ccc(C(F)(F)F)cc1C(F)(F)F [Compound 57, 2-allyl-2-(2,4-bis(trifluoromethyl)benzyl)malononitrile] | 100%
C=CCC(C#N)(C#N)Cc1ccc(C(F)(F)F)cc1Cl [Compound 58, 2-allyl-2-(2-chloro-4-(trifluoromethyl)benzyl)malononitrile] | 100%
CC#CCC(C#N)(C#N)Cc1ccc(OC(F)(F)F)cc1 [Compound 59, 2-(2-butynyl)-2-(4-(trifluoromethoxy)benzyl)malononitrile] | 100%
C=CCCC(C#N)(C#N)Cc1ccc(C(F)(F)F)cc1Cl [Compound 60, 2-(3-butenyl)-2-(2-chloro-4-(trifluoromethyl)benzyl)malononitrile] | 100%
C=CCC(C#N)(C#N)Cc1c(Cl)cc(C(F)(F)F)cc1Cl [Compound 64, 2-allyl-2-(2,6-dichloro-4-(trifluoromethyl)benzyl)malononitrile] | 100%
CC(C#N)(C#N)Cc1ccc(Cl)cc1 [Compound 68, 2-(4-chlorobenzyl)-2-methylmalononitrile] | 100%
C=CCC(C#N)(C#N)Cc1ccc(C(F)(F)F)c(F)c1 [Compound 69, 2-allyl-2-(3-fluoro-4-(trifluoromethyl)benzyl)malononitrile] | 100%
C=CCCCC(C#N)(C#N)Cc1ccc(C(F)(F)F)cc1 [Compound 79, 2-(4-pentenyl)-2-(4-(trifluoromethyl)benzyl)malononitrile] | 100%
C=CCC(C#N)(C#N)C(OC)c1ccc(Cl)cc1 (stereo not drawn) [Compound 84, 2-allyl-2-(4-chloro-α-methoxybenzyl)malononitrile] | 100%
C=CCC(C#N)(C#N)Cc1cccc(OC(F)(F)F)c1 [Compound 89, 2-allyl-2-(3-(trifluoromethoxy)benzyl)malononitrile] | 100%
C=CCC(C#N)(C#N)Cc1ccc(C(C)C)cc1 [Compound 102, 2-allyl-2-(4-isopropylbenzyl)malononitrile] | 100%
CCCCC(C#N)(C#N)Cc1ccc(C(F)(F)F)cc1 [Compound 109, 2-butyl-2-(4-(trifluoromethyl)benzyl)malononitrile] | 100%
CC(C)CC(C#N)(C#N)Cc1ccc(C(F)(F)F)cc1 [Compound 110, 2-(2-methylpropyl)-2-(4-(trifluoromethyl)benzyl)malononitrile] | 100%
C=CCC(C#N)(C#N)Cc1c(F)cc(F)cc1F [Compound 120, 2-allyl-2-(2,4,6-trifluorobenzyl)malononitrile] | 100%

tested on: Musca domestics; test: Pesticidal test against Musca domestics, treated filter paper with sucrose bait (Test Example 5); type: in vivo; conditions: 500 ppm test liquid (Formulation Example 5), 0.7 ml on filter paper, ten female adults, after 24 hours
Experimental: Ten female adults of Musca domestics (house fly) were set free in the polyethylene cup, which was then kept covered. After 24 hours, their survival was examined to determine the mortality.

Compound | mortality at 500 ppm
C=CCCC(C#N)(C#N)Cc1ccc(C(F)(F)F)cc1 [Compound 52, 2-(3-butenyl)-2-(4-(trifluoromethyl)benzyl)malononitrile] | 100%
C=CCC(C#N)(C#N)C(C#N)c1ccc(OC(F)(F)F)cc1 (stereo not drawn) [Compound 55, 2-allyl-2-(4-(trifluoromethoxy)-α-cyanobenzyl)malononitrile] | 100%
C=CCC(C#N)(C#N)C(C#N)c1ccc(SC(F)(F)F)cc1 (stereo not drawn) [Compound 56, 2-allyl-2-(4-(trifluoromethylthio)-α-cyanobenzyl)malononitrile] | 100%
C=CCC(C#N)(C#N)Cc1ccc(C(F)(F)F)cc1C(F)(F)F [Compound 57, 2-allyl-2-(2,4-bis(trifluoromethyl)benzyl)malononitrile] | 100%
C=CCC(C#N)(C#N)Cc1ccc(C(F)(F)F)cc1Cl [Compound 58, 2-allyl-2-(2-chloro-4-(trifluoromethyl)benzyl)malononitrile] | 100%
CC#CCC(C#N)(C#N)Cc1ccc(OC(F)(F)F)cc1 [Compound 59, 2-(2-butynyl)-2-(4-(trifluoromethoxy)benzyl)malononitrile] | 100%
C=CCCC(C#N)(C#N)Cc1ccc(C(F)(F)F)cc1Cl [Compound 60, 2-(3-butenyl)-2-(2-chloro-4-(trifluoromethyl)benzyl)malononitrile] | 100%
C=CCC(C#N)(C#N)Cc1c(Cl)cc(C(F)(F)F)cc1Cl [Compound 64, 2-allyl-2-(2,6-dichloro-4-(trifluoromethyl)benzyl)malononitrile] | 100%
CC(C#N)(C#N)Cc1ccc(Cl)cc1 [Compound 68, 2-(4-chlorobenzyl)-2-methylmalononitrile] | 100%
C=CCC(C#N)(C#N)Cc1ccc(C(F)(F)F)c(F)c1 [Compound 69, 2-allyl-2-(3-fluoro-4-(trifluoromethyl)benzyl)malononitrile] | 100%
C=CCCCC(C#N)(C#N)Cc1ccc(C(F)(F)F)cc1 [Compound 79, 2-(4-pentenyl)-2-(4-(trifluoromethyl)benzyl)malononitrile] | 100%
C=CCC(C#N)(C#N)C(OC)c1ccc(Cl)cc1 (stereo not drawn) [Compound 84, 2-allyl-2-(4-chloro-α-methoxybenzyl)malononitrile] | 100%
C=CCC(C#N)(C#N)Cc1cccc(OC(F)(F)F)c1 [Compound 89, 2-allyl-2-(3-(trifluoromethoxy)benzyl)malononitrile] | 100%
C=CCC(C#N)(C#N)Cc1ccc(C(C)C)cc1 [Compound 102, 2-allyl-2-(4-isopropylbenzyl)malononitrile] | 100%
CCCCC(C#N)(C#N)Cc1ccc(C(F)(F)F)cc1 [Compound 109, 2-butyl-2-(4-(trifluoromethyl)benzyl)malononitrile] | 100%
CC(C)CC(C#N)(C#N)Cc1ccc(C(F)(F)F)cc1 [Compound 110, 2-(2-methylpropyl)-2-(4-(trifluoromethyl)benzyl)malononitrile] | 100%
C=CCC(C#N)(C#N)Cc1c(F)cc(F)cc1F [Compound 120, 2-allyl-2-(2,4,6-trifluorobenzyl)malononitrile] | 100%
